# From patent publication US20260209269A1, “MANDELIC ACID SALT OF PALMITOYL LYSYLVALYL-LYSINE” (DSM IP Assets B.V., priority 2022, published 2026)
# Assay: Stability in a cosmetic preparation (clear gel), peptide content after storage
# Format: physicochemical
substance,measurement,setting,value
Palm-Lys-Val-Lys-OH*2MPAA [MPAA salt],loss of active,after 1 months at 40° C.,52%
Palm-Lys-Val-Lys-OH*2MA [MA salt],loss of active,after 3 months storage at 40° C.,−19%
